Our source for the TGI and GI50 values is PubChem BioAssay (NCI).

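1) Cells in 96-well plates. 2) Compound, 48 h, 5 concentrations. 3) Linear interpolation between surrounding doses. 4) Unreached endpoint = highest concentration. The concentration for 50% growth inhibition is given as GI50. The concentration for full growth arrest is given as TGI.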

Among the test systems are CCRF-CEM leukemia; EKVX NSCLC; SK-MEL-5 melanoma; OVCAR-8 ovarian; UACC-257 melanoma; SN12C renal; LOX IMVI melanoma; HCT-116 colon; A549 NSCLC; IGROV1 ovarian.
Holding throughout (experiment): inhibition of tumour cell growth, NCI panel, 48 h

Regarding `CC(SC1=CC(=O)c2c(O)ccc(O)c2C1=O)C(=O)O` (stereo not given), the TGI in the assay on CCRF-CEM leukemia was 14.8 µM; in the assay with EKVX NSCLC it was greater than 100 µM; in the assay on SK-MEL-5 melanoma, greater than 100 µM; in the assay with OVCAR-8 ovarian, greater than 89.3 µM; in the assay with UACC-257 melanoma, greater than 66 µM; with SN12C renal it was greater than 77.7 µM. Further, the TGI was greater than 57.7 µM in the assay on LOX IMVI melanoma, greater than 72.3 µM in the assay with HCT-116 colon, greater than 100 µM in the assay on A549 NSCLC and greater than 68.6 µM with IGROV1 ovarian.

Consider `[Cl][Sn]([c]1ccccc1)[c]1ccccc1`, for which the GI50 with CCRF-CEM leukemia was 1.85 µM; in the assay on EKVX NSCLC, 6.57 µM; in the assay with SK-MEL-5 melanoma, 3.35 µM; with OVCAR-8 ovarian, 11.5 µM; in the assay with UACC-257 melanoma, 8.25 µM; with SN12C renal, 9.18 µM. For the same compound, the GI50 with LOX IMVI melanoma is 3.81 µM; with HCT-116 colon, 6.91 µM; in the assay with A549 NSCLC it was 17.5 µM; with IGROV1 ovarian it was 17.7 µM. Also, the TGI came to 5.85 µM in the assay on CCRF-CEM leukemia; 15.5 µM in the assay with EKVX NSCLC; 11.2 µM in the assay with SK-MEL-5 melanoma; 17.2 µM in the assay on OVCAR-8 ovarian; 23.1 µM in the assay with UACC-257 melanoma; 22.9 µM in the assay on SN12C renal. For the same compound, the TGI came to 13.5 µM in the assay on LOX IMVI melanoma, 22.9 µM with HCT-116 colon, 36.2 µM in the assay on A549 NSCLC and 43.7 µM with IGROV1 ovarian.

`CCc1ccc(C2=C(O)C(=O)C(c3ccc(CC)cc3)=C(O)C2=O)cc1`: the GI50 is 1.37 µM in the assay with CCRF-CEM leukemia; 2.35 µM in the assay with EKVX NSCLC; 1.89 µM in the assay with SK-MEL-5 melanoma; 2.95 µM with OVCAR-8 ovarian; 2.95 µM in the assay on UACC-257 melanoma; 2.28 µM with SN12C renal. Moreover, the GI50 with LOX IMVI melanoma is 2.84 µM; with HCT-116 colon it was 2.24 µM; with A549 NSCLC, 2.74 µM; in the assay on IGROV1 ovarian, 1.59 µM. Further, the TGI came out at 5.72 µM in the assay on CCRF-CEM leukemia; 8.64 µM in the assay with EKVX NSCLC; 3.86 µM in the assay with SK-MEL-5 melanoma; 10.2 µM with OVCAR-8 ovarian; 11.1 µM in the assay with UACC-257 melanoma; 9.79 µM in the assay on SN12C renal. Also, the TGI in the assay on LOX IMVI melanoma was 12.1 µM; with HCT-116 colon, 6 µM; in the assay with A549 NSCLC it was 10.4 µM; in the assay with IGROV1 ovarian, 3.54 µM.

For the compound `O=C1OCC2=Nc3cccc4cccc(c34)N12`, the TGI in the assay with CCRF-CEM leukemia, in the assay with EKVX NSCLC, in the assay on SK-MEL-5 melanoma, in the assay on OVCAR-8 ovarian, with UACC-257 melanoma and with SN12C renal was greater than 100 µM throughout. For the same compound, the TGI with LOX IMVI melanoma, in the assay on HCT-116 colon, in the assay with A549 NSCLC and in the assay with IGROV1 ovarian was greater than 100 µM throughout.

For `CCCc1ccc(N=Cc2cc(OC)c(OC)c(OC)c2)cc1`, the TGI in the assay with CCRF-CEM leukemia, in the assay with EKVX NSCLC, with SK-MEL-5 melanoma, in the assay with OVCAR-8 ovarian, with UACC-257 melanoma and in the assay with SN12C renal was greater than 100 µM in each case. The TGI with LOX IMVI melanoma, in the assay with HCT-116 colon, in the assay with A549 NSCLC and in the assay on IGROV1 ovarian was greater than 100 µM throughout.

Regarding `CC1=CC[C@@H]2C(C)(C)[C@@H](O)CC[C@@]2(C)[C@@H]1COc1ccc2ccc(=O)oc2c1`, the GI50 in the assay on CCRF-CEM leukemia was 3.39 µM; in the assay on EKVX NSCLC it was 10.3 µM; in the assay with SK-MEL-5 melanoma, 3.48 µM; with OVCAR-8 ovarian it was 3.77 µM; in the assay on UACC-257 melanoma, 12.4 µM; in the assay with SN12C renal, 4.77 µM. Further, the GI50 is 4.77 µM with LOX IMVI melanoma, 4.6 µM with HCT-116 colon, 5.68 µM in the assay on A549 NSCLC and 6.03 µM in the assay with IGROV1 ovarian. Also, the TGI is 19.9 µM with CCRF-CEM leukemia; 26.7 µM in the assay on EKVX NSCLC; 12.7 µM with SK-MEL-5 melanoma; 17.2 µM in the assay with OVCAR-8 ovarian; 26.2 µM in the assay with UACC-257 melanoma; 22.7 µM in the assay on SN12C renal. In addition, the TGI is 19 µM in the assay with LOX IMVI melanoma, 18.7 µM with HCT-116 colon, 22.8 µM in the assay with A549 NSCLC and 22 µM in the assay on IGROV1 ovarian.

As for `Nc1ccc2c(c1)[O][Sn]([c]1ccccc1)([c]1ccccc1)[O]C2=O`, the GI50 is 1.92 µM in the assay with CCRF-CEM leukemia; 10.6 µM in the assay with EKVX NSCLC; 11.6 µM in the assay with SK-MEL-5 melanoma; 13.2 µM in the assay with OVCAR-8 ovarian; 8.14 µM in the assay with UACC-257 melanoma; 7.24 µM in the assay with SN12C renal. Also, the GI50 is 3.57 µM with LOX IMVI melanoma, 7.97 µM with HCT-116 colon, 4.61 µM in the assay on A549 NSCLC and 12.4 µM with IGROV1 ovarian. The TGI in the assay on CCRF-CEM leukemia was 7.76 µM; in the assay on EKVX NSCLC, 25 µM; in the assay with SK-MEL-5 melanoma it was 25 µM; in the assay with OVCAR-8 ovarian it was 28.2 µM; in the assay with UACC-257 melanoma, 20 µM; with SN12C renal, 20.4 µM. Further, the TGI was 11.5 µM in the assay with LOX IMVI melanoma, 15.7 µM in the assay on HCT-116 colon, 15.9 µM with A549 NSCLC and 29.2 µM in the assay with IGROV1 ovarian.

Take `CCCN(CCC)c1c([N+](=O)[O-])cc(S(N)(=O)=O)cc1[N+](=O)[O-]`: the TGI is 46.5 µM with CCRF-CEM leukemia; 37.5 µM in the assay on EKVX NSCLC; 33.5 µM in the assay on SK-MEL-5 melanoma; 35.1 µM in the assay with OVCAR-8 ovarian; 37.2 µM with UACC-257 melanoma; 31.6 µM in the assay with SN12C renal. Moreover, the TGI with LOX IMVI melanoma was 31.6 µM; in the assay with HCT-116 colon, 33.8 µM; in the assay with A549 NSCLC, 32.8 µM; in the assay on IGROV1 ovarian it was 19.6 µM.

Regarding `Cc1cc(O)cc(C)c1/C=C/c1cncc(C(=O)N(C)C)c1`, the GI50 with CCRF-CEM leukemia, in the assay on EKVX NSCLC, in the assay on SK-MEL-5 melanoma, in the assay with OVCAR-8 ovarian, in the assay with UACC-257 melanoma and with SN12C renal was greater than 25 µM throughout. The GI50 in the assay on LOX IMVI melanoma, with HCT-116 colon, in the assay on A549 NSCLC and with IGROV1 ovarian was greater than 25 µM in each case. Moreover, the TGI in the assay with CCRF-CEM leukemia, in the assay on EKVX NSCLC, with SK-MEL-5 melanoma, with OVCAR-8 ovarian, in the assay on UACC-257 melanoma and with SN12C renal was greater than 25 µM throughout. The TGI in the assay on LOX IMVI melanoma, in the assay with HCT-116 colon, in the assay with A549 NSCLC and in the assay on IGROV1 ovarian was greater than 25 µM each time.
